Results published in US4122088A, “Dicarboxyphenyl substituted bis-sulfonylimino dibenzodithiazepine tetroxides” (American Cyanamid Company, priority 1977, dated 1978).
Counter-ions that a name gives are not always drawn. Like-named read-outs stand apart in the source and are kept apart here.

Key:
whole complement = assay: Complement Level Reduction Test: whole complement in serum of dosed guinea pigs, capillary tube assay; format: in vivo; conditions: Cavia porcellus, ip, guinea pig, i.p., versus simultaneous controls
Text: An active inhibitor protects C2 from C1 and C4; (ii) Test, Code 035 (C3-C9 inhibitor) - This test determines the ability of the late components of human complement (C3-C9) to lyse EAC 142 in the presence of appropriate dilutions of the test compound. An active inhibitor protects EAC 142 from lysis by human C3-C9; (iii) Test, Code 036 (C-Shunt inhibitor) - In this test human erythrocytes rendered fragile are lysed in autologous serum via the shunt pathway activated by cobra venom factor in the presence of appropriate dilutions of the test compound. Inhibition of the shunt pathway results in failure of lysis; (iv) Forssman Vasculitis Test -- Here, the well known complement dependent lesion, Forssman vasculitis, is produced in guinea pigs by intradermal injection of rabbit anti-Forssman antiserum. The lesion is measured in terms of diameter, edema and hemorrhage and the extent to which a combined index of these is inhibited by prior intraperitoneal injection of the test compound at 200 mg/kg is then reported, unless otherwise stated; (v) Forssman Shock Test -- Lethal shock is produced in guinea pigs by an i.v. injection of anti-Forssman antiserum and the harmonic mean death time of treated guinea pigs is compared with that of simultaneous controls; (vi) Complement Level Reduction Test - In this test, the above dosed guinea pigs, or others, are bled for serum and the complement level is determined in undiluted serum by the capillary t3be method of U.S. Pat. No. 3,876,376 and compared to undosed control guinea pigs; and (vii) Cap 50 Test -- Here, appropriate amounts of the test compound are added to a pool of guinea pig serum in vitro, after which the undiluted serum capillary tube assay referred to above is run. The concentration of compound inhibiting 50% is reported.
With reference to Table I, guinea pigs weighing about 300 g were dosed intravenously (i.v.) or intraperitoneally (i.p.) with 200 mg/kg of the test compound dissolved in saline and adjusted to pH 7-8. […] Percent inhibition was calculated by comparison with simultaneous controls. […]

shunt pathway = assay: Test, Code 036 (C-Shunt inhibitor): lysis of human erythrocytes in autologous serum via the shunt pathway activated by cobra venom factor; format: cell-based; conditions: serial dilution assay, two-fold dilutions; higher well number indicates higher activity
Text: (§1) An active inhibitor protects C2 from C1 and C4; (ii) Test, Code 035 (C3-C9 inhibitor) - This test determines the ability of the late components of human complement (C3-C9) to lyse EAC 142 in the presence of appropriate dilutions of the test compound. An active inhibitor protects EAC 142 from lysis by human C3-C9; (iii) Test, Code 036 (C-Shunt inhibitor) - In this test human erythrocytes rendered fragile are lysed in autologous serum via the shunt pathway activated by cobra venom factor in the presence of appropriate dilutions of the test compound. Inhibition of the shunt pathway results in failure of lysis; (iv) Forssman Vasculitis Test -- Here, the well known complement dependent lesion, Forssman vasculitis, is produced in guinea pigs by intradermal injection of rabbit anti-Forssman antiserum. […]

human C1 = assay: Test, Code 026 (C1 inhibitor): ability of activated human C1 to destroy fluid phase human C2 in the presence of C4; format: biochemical; conditions: serial dilution assay, two-fold dilutions; higher well number indicates higher activity
Text: as §1

[1] = tested on: late components of human complement (C3-C9); assay: Test, Code 035 (C3-C9 inhibitor): lysis of EAC 142 by late components of human complement; format: cell-based; set-up: key: Negative; conditions: serial dilution assay, two-fold dilutions; higher well number indicates higher activity
Text: as §1

complement system = conditions: literature reports; cited from earlier work
[2] = New England Journal of Medicine, 286, 808-812 (1972); cited from earlier work

O=C(O)c1cc(NS(=O)(=O)c2ccc3c(c2)S(=O)(=O)N(c2cc(C(=O)O)cc(C(=O)O)c2)S(=O)(=O)c2cc(S(=O)(=O)Nc4cc(C(=O)O)cc(C(=O)O)c4)ccc2-3)cc(C(=O)O)c1 [5,5'-{[6-(3,5-Dicarboxyphenyl)dibenzo[d,f][1,3,2]-dithiazepine-3,9-diyl]bis(sulfonylimino)}diisophthalic acid hexasodium salt S,S,S',S'-tetroxide]
inhibition at 200 mg/kg (whole complement; 0.5 h, 30 min, read-out: In Vivo Activity (Guinea Pig) % Inhibition, Intraperitoneal, 30 minutes): -23%
inhibition at 200 mg/kg (whole complement; 1 h, 60 min, read-out: In Vivo Activity (Guinea Pig) % Inhibition, Intraperitoneal, 60 minutes): -57%
inhibition at 200 mg/kg (whole complement; 2 h, 120 min, read-out: In Vivo Activity (Guinea Pig) % Inhibition, Intraperitoneal, 120 minutes): -42%
Shunt Inhibition 036* Wells (shunt pathway): +3 Wells
C1 026* Wells (human C1): +5 Wells
C-Late 035* Wells [1]: N

Cc1ccc(C(=O)Nc2ccc(S(=O)(=O)O)c3cc(S(=O)(=O)O)cc(S(=O)(=O)O)c23)cc1NC(=O)c1cccc(NC(=O)Nc2cccc(C(=O)Nc3cc(C(=O)Nc4ccc(S(=O)(=O)O)c5cc(S(=O)(=O)O)cc(S(=O)(=O)O)c45)ccc3C)c2)c1 [Suramin]
anticomplementary effect / inhibition of the complement system (complement system): competitive inhibitor of the complement system

Nc1ccc2cc(S(=O)(=O)O)cc(O)c2c1N=Nc1ccc(NC(=O)Nc2ccc(N=Nc3c(N)ccc4cc(S(=O)(=O)O)cc(O)c34)c(S(=O)(=O)O)c2)cc1S(=O)(=O)O [chlorazol fast pink, 3,3'-ureylenebis-[6-(2-amino-8-hydroxy-6-sulfo-1-naphthylazo)] benzenesulfonic acid, tetrasodium salt]
anticomplementary effect / inhibition of the complement system (complement system): anticomplementary effect

NCCCCCC(=O)O [epsilon-aminocaproic acid]
use in the treatment of hereditary angioneurotic edema [2]: used with success

NC[C@H]1CC[C@H](C(=O)O)CC1 [tranexamic acid]
use in the treatment of hereditary angioneurotic edema [2]: used with success

heparin
anticomplementary effect / inhibition of the complement system (complement system): anticomplementary effect
